Data published in ChEMBL document CHEMBL3112430, “Biological evaluation of new antitumor taxoids: alteration of substitution at the C-7 and C-10 of docetaxel” (2014).
Calls of active or inactive are those of the source. The calls are words filed in the database; no cut-off is given here.

Assays:
Assay type in all cases: functional
[1] = Growth inhibition of human U937 cells by MTT assay; settings: U-937
[2] = Growth inhibition of human PANC1 cells by MTT assay; settings: PANC-1
Huh-7 = experiment: Growth inhibition of human HuH7 cells by MTT assay
[3] = Growth inhibition of human BGC823 cells by MTT assay; settings: BGC-823
MOLT-4 = experiment: Growth inhibition of human MOLT4 cells by MTT assay
A549 [4] = experiment: Growth inhibition of human A549 cells by MTT assay
HeLa = experiment: Growth inhibition of human HeLa cells by MTT assay
[5] = Growth inhibition of human SGC7901 cells by MTT assay; settings: SGC-7901
HL-60 = experiment: Growth inhibition of human HL60 cells by MTT assay
K562 = experiment: Growth inhibition of human K562 cells by MTT assay
DU-145 = experiment: Growth inhibition of human DU145 cells by MTT assay
MCF7 = experiment: Growth inhibition of human MCF7 cells by MTT assay
[6] = Growth inhibition of human Bel7402 cells by MTT assay; settings: Bel-7402
A-431 = experiment: Growth inhibition of human A431 cells by MTT assay
[7] = (§1) Growth inhibition of human HT1080 cells by MTT assay; settings: HT-1080
A549 [8] = experiment: Ratio of taxol GI50 to compound GI50 for human A549 cells
HT-1080 = experiment: as §1

Compound	GI50 [1] [nM]	GI50 [2] [nM]	GI50 (Huh-7) [nM]	GI50 [3] [nM]	GI50 (MOLT-4) [nM]	GI50 (A549 [4]) [nM]	GI50 (HeLa) [nM]	GI50 [5] [nM]	GI50 (HL-60) [nM]	GI50 (K562)	GI50 (DU-145) [nM]	GI50 (MCF7) [nM]	GI50 [6] [nM]	GI50 (A-431) [nM]	GI50 [7] [nM]	RatioGI50 (A549 [8])	GI50 (HT-1080)
CC(=O)O[C@@]12CO[C@@H]1C[C@H](OC(=O)C(C)(CO)CO)[C@@]1(C)C(=O)[C@H](OC(=O)C(C)(CO)CO)C3=C(C)[C@@H](OC(=O)[C@H](O)[C@@H](NC(=O)OC(C)(C)C)c4ccccc4)C[C@@](O)([C@@H](OC(=O)c4ccccc4)[C@H]21)C3(C)C	198	170	104	984	263	159	225	558	376	554 nM	65.1	130	11.9	1.25	166		
CCOCCO[C@H]1C(=O)[C@]2(C)[C@@H](OCCOCC)C[C@H]3OC[C@@]3(OC(C)=O)[C@H]2[C@H](OC(=O)c2ccccc2)[C@]2(O)C[C@H](OC(=O)[C@H](O)[C@@H](NC(=O)OC(C)(C)C)c3ccccc3)C(C)=C1C2(C)C	1.95	150	87.5	816	268	1.94	2.53	2.27	63.7	483 nM	3.69	1.19	1.56	2.27	2.83	9	
COCO[C@H]1C(=O)[C@]2(C)[C@@H](OCOC)C[C@H]3OC[C@@]3(OC(C)=O)[C@H]2[C@H](OC(=O)c2ccccc2)[C@]2(O)C[C@H](OC(=O)[C@H](O)[C@@H](NC(=O)OC(C)(C)C)c3ccccc3)C(C)=C1C2(C)C	6.15	1.89	257	80.5		563	1.24	966	1230	inactive	2.09	615	661	275			inactive
CC(=O)O[C@@]12CO[C@@H]1C[C@H](OCCO)[C@@]1(C)C(=O)[C@H](OCCO)C3=C(C)[C@@H](OC(=O)[C@H](O)[C@@H](NC(=O)OC(C)(C)C)c4ccccc4)C[C@@](O)([C@@H](OC(=O)c4ccccc4)[C@H]21)C3(C)C	7.41	296	113	128		6.76	6.65	92.5	118	470 nM	413	7.41	56	38.5	472		
COCCO[C@H]1C(=O)[C@]2(C)[C@@H](OCCOC)C[C@H]3OC[C@@]3(OC(C)=O)[C@H]2[C@H](OC(=O)c2ccccc2)[C@]2(O)C[C@H](OC(=O)[C@H](O)[C@@H](NC(=O)OC(C)(C)C)c3ccccc3)C(C)=C1C2(C)C	38.8	295	227	2	749	3.1	407	68.2	57.9	936 nM	982	345	57.3	6.73	480		
CC(=O)O[C@H]1C(=O)[C@@]2(C)[C@H]([C@H](OC(=O)c3ccccc3)[C@]3(O)C[C@H](OC(=O)[C@H](O)[C@@H](NC(=O)c4ccccc4)c4ccccc4)C(C)=C1C3(C)C)[C@]1(OC(C)=O)CO[C@@H]1C[C@@H]2O [PACLITAXEL]	2.39	2.41	207	3.6	2.23	18.7	3.21	3.09		7.01 nM	5.57	1.29	1.79	2.35	3.89		
CO[C@H]1C(=O)[C@]2(C)[C@@H](OC)C[C@H]3OC[C@@]3(OC(C)=O)[C@H]2[C@H](OC(=O)c2ccccc2)[C@]2(O)C[C@H](OC(=O)[C@H](O)[C@@H](NC(=O)OC(C)(C)C)c3ccccc3)C(C)=C1C2(C)C [CABAZITAXEL]	0.539	1.28		467		1.48	1.8	0.355	4.74	4.19 nM	1.43	1.19		1.48	1.41		
